Experiment [1] concerns the target T1, Serine/threonine-protein kinase PLK4 (Homo sapiens) (UniProt O00444).
T1 sequence (whole entry): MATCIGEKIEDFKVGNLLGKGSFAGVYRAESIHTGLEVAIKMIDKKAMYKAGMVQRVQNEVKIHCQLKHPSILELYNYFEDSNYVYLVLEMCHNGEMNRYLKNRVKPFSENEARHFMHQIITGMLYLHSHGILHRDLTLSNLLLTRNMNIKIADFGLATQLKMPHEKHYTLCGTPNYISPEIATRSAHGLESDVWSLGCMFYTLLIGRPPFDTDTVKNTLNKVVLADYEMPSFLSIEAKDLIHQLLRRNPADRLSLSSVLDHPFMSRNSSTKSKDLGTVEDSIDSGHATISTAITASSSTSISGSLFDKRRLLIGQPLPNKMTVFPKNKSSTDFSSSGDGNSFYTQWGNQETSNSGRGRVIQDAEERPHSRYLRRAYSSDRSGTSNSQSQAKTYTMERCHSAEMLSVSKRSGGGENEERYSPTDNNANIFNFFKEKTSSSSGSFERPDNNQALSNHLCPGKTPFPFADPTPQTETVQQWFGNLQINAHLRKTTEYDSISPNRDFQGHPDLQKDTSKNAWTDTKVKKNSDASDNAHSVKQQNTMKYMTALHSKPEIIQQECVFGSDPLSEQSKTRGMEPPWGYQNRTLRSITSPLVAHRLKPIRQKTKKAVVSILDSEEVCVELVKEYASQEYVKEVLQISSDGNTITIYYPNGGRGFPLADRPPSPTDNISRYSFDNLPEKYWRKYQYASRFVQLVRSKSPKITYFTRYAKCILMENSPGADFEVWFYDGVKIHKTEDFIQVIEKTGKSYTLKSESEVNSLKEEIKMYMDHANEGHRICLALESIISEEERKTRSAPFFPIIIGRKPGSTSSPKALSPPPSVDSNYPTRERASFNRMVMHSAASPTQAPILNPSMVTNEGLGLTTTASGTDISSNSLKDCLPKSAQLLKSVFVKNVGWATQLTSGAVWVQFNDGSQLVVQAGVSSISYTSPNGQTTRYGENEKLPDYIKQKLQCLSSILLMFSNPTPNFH
The experiment can be described thus: Selectivity interaction (Kinase panel (DSF assay)) EUB0001558a PLK4. (In general: In DSF a fluorescence change marks the thermal transition of the protein.)

In experiment [2] the target is T2, Phosphatidylinositol 5-phosphate 4-kinase type-2 beta (Homo sapiens) (UniProt P78356).
T2 sequence (whole entry): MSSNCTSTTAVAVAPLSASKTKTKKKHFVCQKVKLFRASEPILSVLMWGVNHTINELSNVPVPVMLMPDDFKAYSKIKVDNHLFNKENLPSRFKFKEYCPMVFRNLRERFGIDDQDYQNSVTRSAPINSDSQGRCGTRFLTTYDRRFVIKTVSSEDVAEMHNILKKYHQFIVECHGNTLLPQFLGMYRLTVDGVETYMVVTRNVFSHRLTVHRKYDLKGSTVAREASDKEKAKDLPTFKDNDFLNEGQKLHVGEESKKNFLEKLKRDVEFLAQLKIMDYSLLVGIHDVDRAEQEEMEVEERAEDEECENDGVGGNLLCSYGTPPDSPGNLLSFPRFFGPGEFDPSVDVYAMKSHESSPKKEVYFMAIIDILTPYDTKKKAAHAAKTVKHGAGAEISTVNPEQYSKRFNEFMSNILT
In words: Selectivity interaction (KinomeScan (DiscoverX)) EUB0000695a PIP4K2B. The note with it: at 100 nM.

In experiment [3] the target is T3, NUAK family SNF1-like kinase 1 (Homo sapiens) (UniProt O60285).
T3 sequence (whole entry): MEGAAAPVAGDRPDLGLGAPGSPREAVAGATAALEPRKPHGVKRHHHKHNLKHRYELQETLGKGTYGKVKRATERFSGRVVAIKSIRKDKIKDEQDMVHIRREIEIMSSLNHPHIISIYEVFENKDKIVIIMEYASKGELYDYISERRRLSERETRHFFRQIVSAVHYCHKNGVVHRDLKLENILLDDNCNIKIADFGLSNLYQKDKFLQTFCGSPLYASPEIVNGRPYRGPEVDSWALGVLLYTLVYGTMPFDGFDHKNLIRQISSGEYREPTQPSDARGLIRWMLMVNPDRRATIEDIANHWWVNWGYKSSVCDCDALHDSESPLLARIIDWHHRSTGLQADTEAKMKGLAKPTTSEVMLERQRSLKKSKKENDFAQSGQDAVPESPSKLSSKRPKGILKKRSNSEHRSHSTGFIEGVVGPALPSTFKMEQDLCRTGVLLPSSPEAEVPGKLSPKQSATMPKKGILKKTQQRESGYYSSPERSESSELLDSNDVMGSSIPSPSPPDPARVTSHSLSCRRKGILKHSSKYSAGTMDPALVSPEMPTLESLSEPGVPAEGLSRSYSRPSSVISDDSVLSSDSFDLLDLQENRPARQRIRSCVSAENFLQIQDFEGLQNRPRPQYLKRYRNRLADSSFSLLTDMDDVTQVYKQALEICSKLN
The experiment can be described thus: Selectivity interaction (KinomeScan (DiscoverX)) EUB0000666a NUAK1. The note with it: at 10 µM.

Experiment [4] has as its target Cyclin-dependent kinase 2 (Homo sapiens, UniProt P24941). In words: Selectivity interaction (ActivX KiNativ screen (kinase selectivity in THP-1 cell lysates)) EUB0000639a CDK2. The format is subcellular. The note with it: lysate, at 0.01 µM.
In experiment [5] the target is NT-3 growth factor receptor (Homo sapiens, UniProt Q16288). In words: Selectivity interaction (Kinase panel (Invitrogen)) EUB0000639a NTRK3. The note with it: at 200 nM.
For experiment [6], the target named is STE20-like serine/threonine-protein kinase (Homo sapiens, UniProt Q9H2G2). The experiment can be described thus: Selectivity interaction (ActivX KiNativ screen (kinase selectivity in THP-1 cell lysates)) EUB0000639a SLK. In kind it is subcellular. The note with it: lysate.
In experiment [7] the target is T4, Serine/threonine-protein kinase Nek3 (Homo sapiens) (UniProt P51956).
T4 sequence (whole entry): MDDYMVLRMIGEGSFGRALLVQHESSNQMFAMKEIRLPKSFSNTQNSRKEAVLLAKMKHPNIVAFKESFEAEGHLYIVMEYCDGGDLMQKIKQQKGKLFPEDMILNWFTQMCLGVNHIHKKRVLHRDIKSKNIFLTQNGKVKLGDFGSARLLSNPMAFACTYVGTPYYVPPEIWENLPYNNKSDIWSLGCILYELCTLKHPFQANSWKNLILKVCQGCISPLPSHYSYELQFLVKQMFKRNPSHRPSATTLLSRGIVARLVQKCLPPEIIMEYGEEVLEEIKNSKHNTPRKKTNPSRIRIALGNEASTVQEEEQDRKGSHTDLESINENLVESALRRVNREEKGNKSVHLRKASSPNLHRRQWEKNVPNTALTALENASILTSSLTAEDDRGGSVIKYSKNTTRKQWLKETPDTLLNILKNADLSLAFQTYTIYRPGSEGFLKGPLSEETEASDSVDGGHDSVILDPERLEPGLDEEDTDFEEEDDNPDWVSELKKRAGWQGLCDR
In words: Selectivity interaction (KinomeScan (DiscoverX)) EUB0000229b NEK3. The note with it: at 10 µM.

STE20-like serine/threonine-protein kinase, sequence (Q9H2G2 whole entry, looked up): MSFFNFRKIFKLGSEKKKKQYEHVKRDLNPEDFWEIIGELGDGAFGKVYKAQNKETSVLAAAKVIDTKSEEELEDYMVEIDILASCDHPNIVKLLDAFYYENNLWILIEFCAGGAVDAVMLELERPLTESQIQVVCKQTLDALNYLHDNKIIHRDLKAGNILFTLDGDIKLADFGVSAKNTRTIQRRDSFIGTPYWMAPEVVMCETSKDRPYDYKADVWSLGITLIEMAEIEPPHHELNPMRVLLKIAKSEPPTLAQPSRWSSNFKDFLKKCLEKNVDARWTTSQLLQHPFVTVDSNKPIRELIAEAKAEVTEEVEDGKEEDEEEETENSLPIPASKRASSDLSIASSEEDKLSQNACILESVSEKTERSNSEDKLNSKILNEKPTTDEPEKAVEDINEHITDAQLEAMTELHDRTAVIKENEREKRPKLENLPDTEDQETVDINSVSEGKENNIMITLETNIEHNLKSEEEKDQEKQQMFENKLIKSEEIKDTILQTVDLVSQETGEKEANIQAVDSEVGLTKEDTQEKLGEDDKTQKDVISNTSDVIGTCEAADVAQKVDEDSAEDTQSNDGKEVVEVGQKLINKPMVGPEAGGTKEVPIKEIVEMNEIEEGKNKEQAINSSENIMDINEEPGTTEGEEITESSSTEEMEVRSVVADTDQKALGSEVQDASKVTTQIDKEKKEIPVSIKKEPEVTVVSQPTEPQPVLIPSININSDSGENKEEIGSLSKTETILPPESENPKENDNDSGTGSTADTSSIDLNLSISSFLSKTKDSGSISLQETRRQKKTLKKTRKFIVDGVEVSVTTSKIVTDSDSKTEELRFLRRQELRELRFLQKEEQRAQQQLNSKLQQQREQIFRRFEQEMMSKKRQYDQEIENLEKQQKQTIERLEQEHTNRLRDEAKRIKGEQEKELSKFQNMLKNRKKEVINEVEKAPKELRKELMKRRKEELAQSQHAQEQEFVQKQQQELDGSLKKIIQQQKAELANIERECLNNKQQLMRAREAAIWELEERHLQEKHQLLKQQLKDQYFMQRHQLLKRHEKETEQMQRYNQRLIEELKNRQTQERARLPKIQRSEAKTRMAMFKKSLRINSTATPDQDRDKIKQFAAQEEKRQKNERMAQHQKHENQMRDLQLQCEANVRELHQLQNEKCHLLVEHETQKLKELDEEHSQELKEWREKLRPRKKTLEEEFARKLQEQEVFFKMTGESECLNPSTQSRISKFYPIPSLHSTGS
NT-3 growth factor receptor, sequence (Q16288 32-839 limits assumed): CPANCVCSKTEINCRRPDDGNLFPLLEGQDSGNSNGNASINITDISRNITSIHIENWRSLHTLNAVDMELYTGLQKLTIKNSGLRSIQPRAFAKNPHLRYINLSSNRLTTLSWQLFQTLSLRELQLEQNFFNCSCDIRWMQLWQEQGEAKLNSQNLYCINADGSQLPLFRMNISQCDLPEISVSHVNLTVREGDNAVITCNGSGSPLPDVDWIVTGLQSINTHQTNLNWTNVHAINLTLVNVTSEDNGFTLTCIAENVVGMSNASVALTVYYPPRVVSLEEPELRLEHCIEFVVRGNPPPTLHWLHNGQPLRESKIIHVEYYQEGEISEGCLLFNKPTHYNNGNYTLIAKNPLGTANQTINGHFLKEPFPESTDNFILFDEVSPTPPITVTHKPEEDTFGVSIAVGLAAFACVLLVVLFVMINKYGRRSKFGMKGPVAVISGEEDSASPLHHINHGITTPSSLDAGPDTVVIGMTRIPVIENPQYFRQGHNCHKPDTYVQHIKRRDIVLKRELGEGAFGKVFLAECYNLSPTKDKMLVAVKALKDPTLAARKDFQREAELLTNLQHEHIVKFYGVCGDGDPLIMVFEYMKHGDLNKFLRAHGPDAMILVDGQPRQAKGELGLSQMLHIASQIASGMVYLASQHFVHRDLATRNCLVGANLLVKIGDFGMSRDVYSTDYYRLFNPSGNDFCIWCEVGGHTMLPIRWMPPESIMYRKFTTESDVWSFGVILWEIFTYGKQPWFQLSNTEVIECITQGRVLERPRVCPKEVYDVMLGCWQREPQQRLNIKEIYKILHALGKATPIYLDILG

`CC(C)(O)[C@H](F)CN1Cc2cc(NC(=O)c3cnn4cccnc34)c(N3CCOCC3)cc2C1=O` registered a dTM in experiment [1] of 5.2 K.

In experiment [2], `Cc1cc(F)c(C(=O)Nc2cccc(-c3nncn3C(C)C)n2)cc1-n1cnc(C2CC2)c1` returned a % of control of 92%.

Compound `O=C(NOC[C@H](O)CO)c1ccc(F)c(F)c1Nc1ccc(I)cc1F` came in with a % of control in experiment [3] of 81%.

As to `CC[C@@H]1[C@H](F)C(=O)N[C@@H]1COc1nccc2cc(C(N)=O)c(OC)cc12` [ZIMLOVISERTIB], the % of inhibition in experiment [4] is 0.3%; in experiment [5] it was 21.9%; in experiment [6] (at 0.01 µM), 3.3%; in experiment [6] (at 0.04 µM) it was -3.6%; in experiment [6] (at 0.2 µM), -8.9%; in experiment [6] (at 1 µM) it was -13.7%. Further, the % of inhibition in experiment [6] (at 5 µM) was -7.8%.

On to `COc1cc(N(C)c2ccnc3ccc(C(F)(F)F)cc23)cc(OC)c1OC`, for which, in experiment [7], the % binding is 80%.
